Measurements reported in PubChem BioAssay AID1963979 (Molecular Pharmacology Branch, DTP, NCI, 2024).

Tested on: 361931-004-R-J1-PDC multicell spheroid viability
Experiment: Anticancer human tumor 361931-004-R-J1-PDC patient-derived colon adenocarcinoma cell line growth inhibition [PI3K]
Details: for IC50: curve of first compound; for viability, T/C: stronger effect = lower value
Procedure, shortened: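 Spheroid viability read-out. Co-cultures contained the tumor line plus HUVEC and human MSCs. Each agent was paired with a PI3K inhibitor (inavolisib, alpelisib, duvelisib, copanlisib) across half-log dilutions starting at clinical Cmax, or at 10 microM when Cmax was unknown.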

[1] = second compound 0.0316 µM, first compound 0.0316 µM
[2] = second compound 0.0316 µM, first compound 0.1 µM
[3] = second compound 0.0316 µM, first compound 0.316 µM
[4] = second compound 0.0316 µM, first compound 1 µM
[5] = second compound 0.1 µM, first compound 0.0316 µM
[6] = second compound 0.1 µM, first compound 0.1 µM
[7] = second compound 0.1 µM, first compound 0.316 µM
[8] = second compound 0.1 µM, first compound 1 µM
[9] = second compound 0.316 µM, first compound 0.0316 µM
[10] = second compound 0.316 µM, first compound 0.1 µM
[11] = second compound 0.316 µM, first compound 0.316 µM
[12] = second compound 0.316 µM, first compound 1 µM
[13] = second compound 1 µM, first compound 0.0316 µM
[14] = second compound 1 µM, first compound 0.1 µM
[15] = second compound 1 µM, first compound 0.316 µM
[16] = second compound 1 µM, first compound 1 µM
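Further: spheroids exposed to agents for seven days before readout.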

Compound Cn1nccc1Nc1nccc(-c2ccn(C(CO)c3ccc(Cl)c(F)c3)c(=O)c2)n1 (centres undefined) + COc1c(OCCCN2CCOCC2)ccc2c3n(c(=NC(=O)c4cnc(N)nc4)nc12)CCN3 has an IC50 (second compound 0.00316 µM) of 9030 nM, an IC50 (second compound 0.01 µM) of 4530 nM and an IC50 (second compound 0.0316 µM) of 1490 nM. For the same compound, the IC50 (second compound 0.1 µM) was 450 nM, the IC50 (second compound 0.316 µM) was 32.5 nM and the IC50 (second compound 1 µM) was less than 31.6 nM. For the same compound, the viability, T/C (second compound 0.00316 µM, first compound 0.0316 µM) was 92.5%, the viability, T/C (second compound 0.00316 µM, first compound 0.1 µM) was 98.3% and the viability, T/C (second compound 0.00316 µM, first compound 0.316 µM) was 90.9%. For the same compound, the viability, T/C (second compound 0.00316 µM, first compound 1 µM) was 86.3%, the viability, T/C (second compound 0.00316 µM, first compound 3.16 µM) was 77% and the viability, T/C (second compound 0.00316 µM, first compound 10 µM) was 47.2%. The viability, T/C (second compound 0.01 µM, first compound 0.0316 µM) was 87.9%, the viability, T/C (second compound 0.01 µM, first compound 0.1 µM) was 94.4% and the viability, T/C (second compound 0.01 µM, first compound 0.316 µM) was 88.7%. For the same compound, the viability, T/C (second compound 0.01 µM, first compound 1 µM) was 80.8%, the viability, T/C (second compound 0.01 µM, first compound 3.16 µM) was 59.9% and the viability, T/C (second compound 0.01 µM, first compound 10 µM) was 28.6%. The viability, T/C [1] was 92%, the viability, T/C [2] was 87.7% and the viability, T/C [3] was 77.4%. It also gave a viability, T/C [4] of 64%, a viability, T/C (second compound 0.0316 µM, first compound 3.16 µM) of 27.9% and a viability, T/C (second compound 0.0316 µM, first compound 10 µM) of 12.6%. For the same compound, the viability, T/C [5] was 80.8%, the viability, T/C [6] was 72.3% and the viability, T/C [7] was 58.3%. For the same compound, the viability, T/C [8] was 32.8%, the viability, T/C (second compound 0.1 µM, first compound 3.16 µM) was 8.5% and the viability, T/C (second compound 0.1 µM, first compound 10 µM) was 3.74%. The viability, T/C [9] was 50.8%, the viability, T/C [10] was 40.2% and the viability, T/C [11] was 26.1%. The viability, T/C [12] was 8.67%, the viability, T/C (second compound 0.316 µM, first compound 3.16 µM) was 2.32% and the viability, T/C (second compound 0.316 µM, first compound 10 µM) was 2.04%. It also gave a viability, T/C [13] of 18.4%, a viability, T/C [14] of 13.3% and a viability, T/C [15] of 8.6%. It also gave a viability, T/C [16] of 2.23%, a viability, T/C (second compound 1 µM, first compound 3.16 µM) of 1.89% and a viability, T/C (second compound 1 µM, first compound 10 µM) of 1.61%.

CCN1CCN(Cc2ccc(Nc3ncc(F)c(-c4cc(F)c5nc(C)n(C(C)C)c5c4)n3)nc2)CC1 + Cc1nc(NC(=O)N2CCCC2C(N)=O)sc1-c1ccnc(C(C)(C)C(F)(F)F)c1 showed an IC50 (second compound 0.0316 µM) greater than 1000 nM, an IC50 (second compound 0.1 µM) greater than 1000 nM and an IC50 (second compound 0.316 µM) greater than 1000 nM. For the same compound, the IC50 (second compound 1 µM) was 605 nM, the IC50 (second compound 3.16 µM) was 111 nM and the IC50 (second compound 10 µM) was 18.9 nM. It also gave a viability, T/C (second compound 0.0316 µM, first compound 0.00316 µM) of 91.8%, a viability, T/C (second compound 0.0316 µM, first compound 0.01 µM) of 99.3% and a viability, T/C [1] of 99.5%. The viability, T/C [2] was 93.8%, the viability, T/C [3] was 79.7% and the viability, T/C [4] was 82.1%. The viability, T/C (second compound 0.1 µM, first compound 0.00316 µM) was 99.6%, the viability, T/C (second compound 0.1 µM, first compound 0.01 µM) was 97.2% and the viability, T/C [5] was 96.6%. The viability, T/C [6] was 82.6%, the viability, T/C [7] was 81.7% and the viability, T/C [8] was 57.4%. For the same compound, the viability, T/C (second compound 0.316 µM, first compound 0.00316 µM) was 97.9%, the viability, T/C (second compound 0.316 µM, first compound 0.01 µM) was 90.2% and the viability, T/C [9] was 83.8%. The viability, T/C [10] was 72.6%, the viability, T/C [11] was 69.5% and the viability, T/C [12] was 56.4%. For the same compound, the viability, T/C (second compound 1 µM, first compound 0.00316 µM) was 95.2%, the viability, T/C (second compound 1 µM, first compound 0.01 µM) was 87.7% and the viability, T/C [13] was 75.2%. It also gave a viability, T/C [14] of 74.3%, a viability, T/C [15] of 65.2% and a viability, T/C [16] of 39.7%. For the same compound, the viability, T/C (second compound 3.16 µM, first compound 0.00316 µM) was 75.4%, the viability, T/C (second compound 3.16 µM, first compound 0.01 µM) was 67.2% and the viability, T/C (second compound 3.16 µM, first compound 0.0316 µM) was 54.9%. It also gave a viability, T/C (second compound 3.16 µM, first compound 0.1 µM) of 51.9%, a viability, T/C (second compound 3.16 µM, first compound 0.316 µM) of 46% and a viability, T/C (second compound 3.16 µM, first compound 1 µM) of 37.3%. For the same compound, the viability, T/C (second compound 10 µM, first compound 0.00316 µM) was 65.9%, the viability, T/C (second compound 10 µM, first compound 0.01 µM) was 59% and the viability, T/C (second compound 10 µM, first compound 0.0316 µM) was 40.6%. The viability, T/C (second compound 10 µM, first compound 0.1 µM) was 40.5%, the viability, T/C (second compound 10 µM, first compound 0.316 µM) was 32.2% and the viability, T/C (second compound 10 µM, first compound 1 µM) was 30.5%.
